The CheMixHub ionic liquid set

Experiment: xn = mol fraction of the nth substance listed
Settings: 100 kPa

CC[n+]1ccccc1.N#C[N-]C#N + CCCO
Settings | viscosity [mPa·s]
288.15 K, x2 = 0.1095 | 20.5
288.15 K, x2 = 0.1947 | 17.6
288.15 K, x2 = 0.8012 | 4.59
293.15 K, x2 = 0 | 22.1
293.15 K, x2 = 0.3011 | 13.3
293.15 K, x2 = 0.8012 | 4.05
298.15 K, x2 = 0.5008 | 7.45
298.15 K, x2 = 0.9 | 2.77
303.15 K, x2 = 0.4029 | 8.04
303.15 K, x2 = 0.702 | 4.19
308.15 K, x2 = 0.1947 | 9.87
308.15 K, x2 = 0.5008 | 5.9
308.15 K, x2 = 0.8012 | 2.92
308.15 K, x2 = 0.9 | 2.24
313.15 K, x2 = 0.1947 | 8.76
313.15 K, x2 = 0.5008 | 5.31
318.15 K, x2 = 0 | 11
318.15 K, x2 = 0.5008 | 4.8
318.15 K, x2 = 0.702 | 3.12
318.15 K, x2 = 0.9 | 1.84

CC[n+]1ccccc1.N#C[N-]C#N + CCO
Settings | viscosity [mPa·s]
288.15 K, x2 = 0 | 25.9
288.15 K, x2 = 0.1008 | 21.3
293.15 K, x2 = 0.1008 | 17.9
298.15 K, x2 = 0 | 18.9
298.15 K, x2 = 0.1974 | 12.4
298.15 K, x2 = 0.3008 | 10.3
298.15 K, x2 = 0.7999 | 2.54
303.15 K, x2 = 0.9011 | 1.69
308.15 K, x2 = 0.5058 | 5.17
313.15 K, x2 = 0.3994 | 5.99
313.15 K, x2 = 0.5058 | 4.69
313.15 K, x2 = 0.5994 | 3.74
313.15 K, x2 = 0.6996 | 2.92
318.15 K, x2 = 0.1008 | 8.97
318.15 K, x2 = 0.3994 | 5.44

CC[n+]1ccn(CCOC)c1.O=S(=O)([N-]S(=O)(=O)C(F)(F)F)C(F)(F)F + CCO
viscosity [mPa·s]
Settings | x1 = 0.1 | x1 = 0.1947 | x1 = 0.2995 | x1 = 0.4 | x1 = 0.5002 | x1 = 0.6001 | x1 = 0.6999 | x1 = 0.8 | x1 = 0.9 | x1 = 1
288.15 K | 2.988 | 5.32 | 8.21 | 12.02 | 17.17 | 22.86 | 29.81 | 37.73 | 47.39 | 54.62
293.15 K | 2.648 | 4.62 | 7.03 | 10.16 | 14.5 | 19.09 | 24.64 | 30.74 | 38.01 | 43.63
298.15 K | 2.361 | 4.046 | 6.09 | 8.7 | 12.31 | 16.25 | 20.6 | 25.4 | 31.15 | 35.49
303.15 K | 2.117 | 3.591 | 5.32 | 7.53 | 10.53 | 13.87 | 17.61 | 21.35 | 25.87 | 29.33
308.15 K | 1.907 | 3.195 | 4.688 | 6.58 | 9.1 | 11.89 | 15.14 | 18.22 | 21.81 | 24.58
313.15 K | 1.725 | 2.861 | 4.162 | 5.799 | 7.91 | 10.27 | 13.06 | 15.8 | 18.68 | 20.86
318.15 K | 1.568 | 2.576 | 3.743 | 5.15 | 6.95 | 8.97 | 11.36 | 13.73 | 16.27 | 18.03

C[N+](C)(C)CCC[n+]1ccccc1.N#C[N-]C#N.N#C[N-]C#N + CCO
viscosity [mPa·s]
Settings | x1 = 0.0999 | x1 = 0.2001 | x1 = 0.3002 | x1 = 0.3999 | x1 = 0.5002 | x1 = 0.6001 | x1 = 0.7003 | x1 = 0.7998 | x1 = 0.8995 | x1 = 1
293.15 K | 6.55 | 15.6 | 38 | 75.8 | 137 | 243 | 391 | 614 | 1038 | 2191
303.15 K | 5.09 | 11.8 | 25.6 | 49.2 | 88.3 | 138 | 205 | 291 | 435 | 830
313.15 K | 4.23 | 9.28 | 20.7 | 34.4 | 58.2 | 84.3 | 119 | 161 | 229 | 386
323.15 K | 3.55 | 7.47 | 15.7 | 25.2 | 38.9 | 56.2 | 75.8 | 99 | 134 | 210
333.15 K | 3.1 | 6.12 | 11.9 | 18 | 28 | 39.6 | 51.4 | 65.1 | 85.3 | 127
